The experiment has as its target T1, TNF (Homo sapiens, UniProt P01375).
T1 construct: endogenous in cells; host or cells: the patients' own TNF in vivo
Put plainly: Case report: Arthritis and Vasculitis associated with silicone breast implants, anti-TNF treatment. Format: in vivo. The following applies: patient after implant removal; earlier treatment for over 20 years with corticosteroids and methotrexate.

Molecules are shown by their SMILES.

T1 sequence (P01375 77-233 limits assumed): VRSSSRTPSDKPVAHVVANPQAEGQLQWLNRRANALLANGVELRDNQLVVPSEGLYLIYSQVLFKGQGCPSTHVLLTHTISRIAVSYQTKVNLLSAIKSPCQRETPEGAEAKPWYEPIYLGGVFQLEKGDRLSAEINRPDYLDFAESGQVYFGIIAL

With `CN(Cc1cnc2nc(N)nc(N)c2n1)c1ccc(C(=O)N[C@@H](CCC(=O)O)C(=O)O)cc1` [methotrexate], the “outcome of Arthritis and Vasculitis associated with silicone breast implants” value was “without success”.

The values above are taken from patent US20060094645A1, “Method for defining and treating chemically-induced immune disorders using tumor necrosis factor (TFNalpha), interleukin-1 (lL-1), and interleulin-6R(lL-6R) antagonists” (priority 2004, published 2006).
